Results: patent US20150307938A1, “METHOD TO IDENTIFY A NOVEL CLASS OF IMMUNOLOGIC ADJUVANTS” (Lancell, L.L.C., priority 2011, published 2015)
Where “and” joins values, the source holds several entries; their conditions need not be identical. Identical values can stand only once.

System: skin
Test: Affymetrix microarray of skin, DBP-4 hr and analogs vs. untreated; gene selection by log-2 fold change, Wilcoxon, Kendall tau (Tables 8, 9)
Type: in vivo, mouse
Settings: mouse, in vivo

With CCCCOC(=O)c1ccccc1C(=O)OCCCC [DBP, dibutylphthalate] the “AY026312 NM_133359_at ≧2-Fold change” value was “No”, the “Abcc3 (NM_029600_at) ≧2-Fold change” value was “Yes” and the “Acot5 (NM_145444_at) ≧2-Fold change” value was “Yes”. For the same compound, the “Actn2 NM_033268_at ≧2-Fold change” value was “No”, the “Adamts4 (NM_172845_at) ≧2-Fold change” value was “Yes” and the “Akap12 (NM_031185_at) ≧2-Fold change” value was “Yes”. For the same compound, the “Akr1c14 NM_134072_at ≧2-Fold change” value was “No”, the “Aldh7a1 NM_001127338_at ≧2-Fold change” value was “No” and the “Angptl4 (NM_020581_at) ≧2-Fold change” value was “Yes”. The “Aox4 NM_023631_at ≧2-Fold change” value was “No”, the “Arc (NM_018790_at) ≧2-Fold change” value was “Yes” and the “Arid5a (NM_145996_at) ≧2-Fold change” value was “Yes”. For the same compound, the “Arid5a (NR_033310_at) ≧2-Fold change” value was “Yes”, the “Asb5 NM_029569_at ≧2-Fold change” value was “No” and the “Atp2a2 NM_001110140_at ≧2-Fold change” value was “No”. The “Atp13a3 NM_001128094_at ≧2-Fold change” value was “No”, the “Atp13a3 NM_001128096_at ≧2-Fold change” value was “No” and the “Bcar3 (NM_013867_at) ≧2-Fold change” value was “Yes”. For the same compound, the “Bcl3 (NM_033601_at) ≧2-Fold change” value was “Yes”, the “Bcr NM_001081412_at ≧2-Fold change” value was “No” and the “Bhlhe40 (NM_011498_at) ≧2-Fold change” value was “Yes”. For the same compound, the “Calcb (NM_054084_at) ≧2-Fold change” value was “Yes”, the “Camk2g NM_001039138_at ≧2-Fold change” value was “No” and the “Camk2g NM_001039139_at ≧2-Fold change” value was “No”. The “Ccl1 (NM_011329_at) ≧2-Fold change” value was “Yes”, the “Ccl2 (NM_011333_at) ≧2-Fold change” value was “Yes” and the “Ccl3 (NM_011337_at) ≧2-Fold change” value was “Yes”. The “Ccl7 (NM_013654_at) ≧2-Fold change” value was “Yes”, the “Ccl8 NM_021443_at ≧2-Fold change” value was “No” and the “Ccl9 (NM_011338_at) ≧2-Fold change” value was “Yes”. The “Ccl12 (NM_011331_at) ≧2-Fold change” value was “Yes”, the “Ccl17 (NM_011332_at) ≧2-Fold change” value was “Yes” and the “Ccl20 (NM_016960_at) ≧2-Fold change” value was “Yes”. The “Ccl24 NM_019577_at ≧2-Fold change” value was “No”, the “Cd86 (NM_019388_at) ≧2-Fold change” value was “Yes” and the “Cd207 (NM_144943_at) ≧2-Fold change” value was “Yes”. For the same compound, the “Cd209d NM_130904_at ≧2-Fold change” value was “No”, the “Ckmt2 NM_198415_at ≧2-Fold change” value was “No” and the “Cldn8 NM_018778_at ≧2-Fold change” value was “No”. The “Clec4e (NM_019948_at) ≧2-Fold change” value was “Yes”, the “Clec4n NM_020001_at ≧2-Fold change” value was “No” and the “Clec7a (NM_020008_at) ≧2-Fold change” value was “Yes”. For the same compound, the “Clec4d (NM_010819_at) ≧2-Fold change” value was “Yes”, the “Clic4 (NM_013885_at) ≧2-Fold change” value was “Yes” and the “Cmya5 NM_023821_at ≧2-Fold change” value was “No”. For the same compound, the “Comp NM_016685_at ≧2-Fold change” value was “No”, the “Corin NM_016869_at ≧2-Fold change” value was “No” and the “Crem (NM_013498_at) ≧2-Fold change” value was “Yes”. The “Crispld1 NM_031402_at ≧2-Fold change” value was “No”, the “Cxcl10 NM_021274_at ≧2-Fold change” value was “No” and the “Cxcl16 (NM_023158_at) ≧2-Fold change” value was “Yes”. The “Cxcr6 NM_030712_at ≧2-Fold change” value was “No”, the “Cyr61 (NM_010516_at) ≧2-Fold change” value was “Yes” and the “Cyth1 NM_001112699_at ≧2-Fold change” value was “No”. For the same compound, the “Cyth1 NM_001112700_at ≧2-Fold change” value was “No”, the “Cytip (NM_139200_at) ≧2-Fold change” value was “Yes” and the “DBP LogFold-Change Versus-Untreated: 1600029D21Rik” value was 1.52. For the same compound, the “DBP LogFold-Change Versus-Untreated: 1810055G02Rik” value was 0.89, the “DBP LogFold-Change Versus-Untreated: 5730408K05Rik” value was 0.91 and the “DBP LogFold-Change Versus-Untreated: 1810011010Rik” value was 1.53. The “DBP LogFold-Change Versus-Untreated: Abcc3” value was 1.09, the “DBP LogFold-Change Versus-Untreated: Adam8” value was 1.94 and the “DBP LogFold-Change Versus-Untreated: Adamts4” value was 1.41. For the same compound, the “DBP LogFold-Change Versus-Untreated: Angptl4” value was 2.61, the “DBP LogFold-Change Versus-Untreated: Aqp3” value was 0.89 and the “DBP LogFold-Change Versus-Untreated: Arc” value was 1.90. For the same compound, the “DBP LogFold-Change Versus-Untreated: Arid5a” value was 1.49, the “DBP LogFold-Change Versus-Untreated: Bcar3” value was 1.08 and the “DBP LogFold-Change Versus-Untreated: Bcl3” value was 2.56. For the same compound, the “DBP LogFold-Change Versus-Untreated: Bhlhe40” value was 1.26, the “DBP LogFold-Change Versus-Untreated: Birc3” value was 1.02 and the “DBP LogFold-Change Versus-Untreated: Btg2” value was 1.56. For the same compound, the “DBP LogFold-Change Versus-Untreated: Ccl2” value was 3.23, the “DBP LogFold-Change Versus-Untreated: Ccl7” value was 3.11 and the “DBP LogFold-Change Versus-Untreated: Ccl12” value was 3.10. The “DBP LogFold-Change Versus-Untreated: Ccl20” value was 5.93, the “DBP LogFold-Change Versus-Untreated: Ccrn4l” value was 1.75 and the “DBP LogFold-Change Versus-Untreated: Cd44” value was 1.31. The “DBP LogFold-Change Versus-Untreated: Cd86” value was 1.73, the “DBP LogFold-Change Versus-Untreated: Cd207” value was 1.42 and the “DBP LogFold-Change Versus-Untreated: Cebpd” value was 1.58. For the same compound, the “DBP LogFold-Change Versus-Untreated: Ch25h” value was 1.91, the “DBP LogFold-Change Versus-Untreated: Cirh1a” value was 0.79 and the “DBP LogFold-Change Versus-Untreated: Cish” value was 1.12. For the same compound, the “DBP LogFold-Change Versus-Untreated: Clec7a” value was 2.09, the “DBP LogFold-Change Versus-Untreated: Clic4” value was 1.12 and the “DBP LogFold-Change Versus-Untreated: Coro2a” value was 0.88. The “DBP LogFold-Change Versus-Untreated: Crem” value was 1.29 and 1.23 and the “DBP LogFold-Change Versus-Untreated: Csf2rb” value was 1.11.
